Tests used:
[1] = tested on: lung cancer (A-549) cell line; assay: Antiproliferative assay, A-549; assay type: cell-based; details: Homo sapiens, A549, read-out: Antiproliferative activity IC50 ± SEM, A-549
[2] = tested on: pancreatic cancer (Panc-1) cell line; assay: Antiproliferative assay, Panc-1; assay type: cell-based; details: Homo sapiens, PANC-1, read-out: Antiproliferative activity IC50 ± SEM, Panc-1
[3] = tested on: breast cancer (MCF-7) cell line; assay: Antiproliferative assay, MCF-7; assay type: cell-based; details: Homo sapiens, MCF7, read-out: Antiproliferative activity IC50 ± SEM, MCF-7
colon cancer (HT-29) = assay: Antiproliferative assay, HT-29; assay type: cell-based; details: Homo sapiens, HT-29, read-out: Antiproliferative activity IC50 ± SEM, HT-29
BRAF^V600E [4] = biological target: BRAF^V600E (Mus musculus, UniProt P28028, V585E); assay: BRAF^V600E inhibitory assay; assay type: biochemical
Sequence of BRAF^V600E (Mus musculus, UniProt P28028, V585E) (P28028 whole entry V585E): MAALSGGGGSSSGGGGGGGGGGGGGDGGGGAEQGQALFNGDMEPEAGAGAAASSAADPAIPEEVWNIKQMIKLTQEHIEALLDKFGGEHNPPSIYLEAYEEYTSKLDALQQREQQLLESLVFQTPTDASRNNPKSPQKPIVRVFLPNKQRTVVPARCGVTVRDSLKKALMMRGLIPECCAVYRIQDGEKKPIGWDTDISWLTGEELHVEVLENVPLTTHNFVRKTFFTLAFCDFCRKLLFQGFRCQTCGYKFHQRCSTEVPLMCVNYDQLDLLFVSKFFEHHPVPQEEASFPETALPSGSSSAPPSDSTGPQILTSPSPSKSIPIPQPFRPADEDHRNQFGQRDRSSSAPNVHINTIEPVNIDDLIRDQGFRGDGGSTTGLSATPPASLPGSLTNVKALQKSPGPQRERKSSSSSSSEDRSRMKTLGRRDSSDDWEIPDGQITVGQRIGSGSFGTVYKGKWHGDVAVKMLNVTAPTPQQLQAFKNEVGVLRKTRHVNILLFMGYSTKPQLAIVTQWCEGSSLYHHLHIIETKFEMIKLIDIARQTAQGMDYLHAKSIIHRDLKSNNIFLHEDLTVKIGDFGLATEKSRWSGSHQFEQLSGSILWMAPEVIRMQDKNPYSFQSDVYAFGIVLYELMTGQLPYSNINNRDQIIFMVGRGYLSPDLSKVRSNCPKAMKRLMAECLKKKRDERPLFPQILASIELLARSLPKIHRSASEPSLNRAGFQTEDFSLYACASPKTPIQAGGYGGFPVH

VEGFR-2 [5] = biological target: VEGFR-2 (Homo sapiens, UniProt P35968); assay: VEGFR-2 inhibitory assay; assay type: biochemical
Sequence of VEGFR-2 (Homo sapiens, UniProt P35968) (P35968 20-1356): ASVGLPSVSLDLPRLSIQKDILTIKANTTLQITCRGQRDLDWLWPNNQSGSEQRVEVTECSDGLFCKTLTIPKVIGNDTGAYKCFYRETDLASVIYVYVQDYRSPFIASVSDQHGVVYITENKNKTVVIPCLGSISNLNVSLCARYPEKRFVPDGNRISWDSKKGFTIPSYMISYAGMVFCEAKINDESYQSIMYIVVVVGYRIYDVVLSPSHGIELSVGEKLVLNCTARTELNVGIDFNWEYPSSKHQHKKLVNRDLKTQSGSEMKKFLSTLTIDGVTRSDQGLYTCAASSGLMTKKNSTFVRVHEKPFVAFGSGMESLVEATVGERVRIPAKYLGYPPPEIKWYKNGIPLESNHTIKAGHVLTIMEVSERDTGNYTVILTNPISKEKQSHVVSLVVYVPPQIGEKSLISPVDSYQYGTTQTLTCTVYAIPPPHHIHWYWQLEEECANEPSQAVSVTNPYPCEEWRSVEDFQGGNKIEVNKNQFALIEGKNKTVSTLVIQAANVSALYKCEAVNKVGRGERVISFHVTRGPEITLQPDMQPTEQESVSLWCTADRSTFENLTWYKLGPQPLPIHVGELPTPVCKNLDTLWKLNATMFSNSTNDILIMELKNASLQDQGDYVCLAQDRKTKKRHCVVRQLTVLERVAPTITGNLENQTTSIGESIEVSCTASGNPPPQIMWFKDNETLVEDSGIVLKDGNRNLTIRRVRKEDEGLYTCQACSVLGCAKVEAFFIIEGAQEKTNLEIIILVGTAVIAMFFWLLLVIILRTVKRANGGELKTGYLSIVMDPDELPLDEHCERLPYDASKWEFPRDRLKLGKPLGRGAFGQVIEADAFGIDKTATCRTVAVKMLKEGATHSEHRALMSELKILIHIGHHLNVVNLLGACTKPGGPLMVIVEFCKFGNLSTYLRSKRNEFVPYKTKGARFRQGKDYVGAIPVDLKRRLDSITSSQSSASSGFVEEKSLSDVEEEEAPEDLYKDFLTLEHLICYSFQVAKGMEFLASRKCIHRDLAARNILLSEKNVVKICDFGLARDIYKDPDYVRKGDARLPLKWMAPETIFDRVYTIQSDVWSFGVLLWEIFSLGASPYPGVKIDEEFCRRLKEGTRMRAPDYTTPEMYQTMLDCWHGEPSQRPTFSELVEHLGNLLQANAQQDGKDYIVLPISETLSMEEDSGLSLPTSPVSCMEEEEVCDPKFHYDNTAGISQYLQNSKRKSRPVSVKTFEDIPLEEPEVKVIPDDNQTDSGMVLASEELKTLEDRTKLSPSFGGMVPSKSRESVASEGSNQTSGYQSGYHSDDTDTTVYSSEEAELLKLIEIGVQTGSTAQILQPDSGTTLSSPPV

[6] = tested on: four human cancer cell lines (A-549, MCF-7, Panc-1, HT-29); assay: Antiproliferative assay, average over four cancer cell lines; assay type: cell-based; details: for GI50: Homo sapiens, read-out: Antiproliferative activity, Average (GI50); for Fold lower antiproliferative potency (GI50) than 9c: GI50 relative to 9c
Cell viability assay = assay type: cell-based; details: human, MCF-10A mammary gland epithelial normal cells
EGFR [7] = biological target: EGFR (Homo sapiens, UniProt P00533); assay: EGFR-TK inhibitory assay; assay type: biochemical
Sequence of EGFR (Homo sapiens, UniProt P00533) (P00533 669-1210): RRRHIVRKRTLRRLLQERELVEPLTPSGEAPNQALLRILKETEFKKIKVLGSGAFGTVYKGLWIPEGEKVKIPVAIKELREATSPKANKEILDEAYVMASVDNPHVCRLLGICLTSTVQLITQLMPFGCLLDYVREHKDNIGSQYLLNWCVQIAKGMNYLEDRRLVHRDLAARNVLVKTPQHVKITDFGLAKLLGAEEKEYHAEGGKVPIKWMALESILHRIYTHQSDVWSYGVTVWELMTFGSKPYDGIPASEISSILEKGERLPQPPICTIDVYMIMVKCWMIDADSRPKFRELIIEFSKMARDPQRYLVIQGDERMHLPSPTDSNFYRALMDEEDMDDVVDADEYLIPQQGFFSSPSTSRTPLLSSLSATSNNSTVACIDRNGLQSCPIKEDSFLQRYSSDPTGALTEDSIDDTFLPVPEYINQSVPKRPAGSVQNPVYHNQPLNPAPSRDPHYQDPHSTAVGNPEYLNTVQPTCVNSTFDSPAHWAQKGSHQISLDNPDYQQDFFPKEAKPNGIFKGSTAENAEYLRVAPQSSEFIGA

VEGFR-2 [8] = assay: Western blotting, VEGFR-2 level in A549 cells; assay type: cell-based, human; details: untreated control OD 0.662
BRAF^V600E [9] = assay: Western blotting, BRAF^V600E level in A549 cells; assay type: cell-based, human; details: untreated control OD 0.507
EGFR [10] = assay: Western blotting, EGFR level in A549 cells; assay type: cell-based, human; details: untreated control OD 0.695

For `C#Cc1cccc(Nc2ncnc3cc(OCCOC)c(OCCOC)cc23)c1` [Erlotinib, reference compound], the IC50 [1] was 30 ± 3 nM, the IC50 [2] was 30 ± 3 nM and the IC50 [3] was 40 ± 3 nM. For the same compound, the IC50 (colon cancer (HT-29)) was 30 ± 3 nM.
`Brc1ccc(C2=NN=C(Nc3ccccc3)SC2)cc1` [Compound 9d, 5-(4-Bromophenyl)-2-(phenylamino)-6H-1,3,4-thiadiazin-3-ium bromide] gave an IC50 (BRAF^V600E [4]) of 88 ± 6 nM, an IC50 [1] of 48 ± 4 nM and an IC50 [2] of 48 ± 4 nM. It also gave an IC50 (VEGFR-2 [5]) of 3.25 ± 0.03 nM, an IC50 [3] of 44 ± 4 nM and a GI50 [6] of 47 nM. It also gave an IC50 (colon cancer (HT-29)) of 47 ± 4 nM, a viability at 96 h, 50 µM (Cell viability assay) of 89% and an IC50 (EGFR [7]) of 96 ± 7 nM.
`Brc1ccc(C2=NN/C(=N/C3CCCCC3)SC2)cc1` [Compound 9g, (Z)-N-(5-(4-Bromophenyl)-3,6-dihydro-2H-1,3,4-thiadiazin-2-ylidene) cyclohexanaminium bromide] gave an IC50 [1] of 54 ± 5 nM, an IC50 [2] of 56 ± 5 nM and an IC50 [3] of 51 ± 5 nM. For the same compound, the GI50 [6] was 54 nM, the IC50 (colon cancer (HT-29)) was 56 ± 5 nM and the viability at 96 h, 50 µM (Cell viability assay) was 88%.
For `Br.C=CC/N=C1/NN=C(c2ccccc2)CS1` [Compound 9b, (Z)-N-(5-Phenyl-3,6-dihydro-2H-1,3,4-thiadiazin-2-ylidene)prop-2-en-1-aminium bromide], the IC50 [1] was 56 ± 5 nM, the IC50 [2] was 58 ± 5 nM and the IC50 [3] was 52 ± 5 nM. The “Fold lower antiproliferative potency (GI50) than 9c” value [6] was 1.5 fold, the GI50 [6] was 56 nM and the IC50 (colon cancer (HT-29)) was 58 ± 5 nM. It also gave a viability at 96 h, 50 µM (Cell viability assay) of 90%.
`Br.c1ccc(NC2=NN=C(c3ccccc3)CS2)cc1` [Compound 9a, 5-Phenyl-2-(phenylamino)-6H-1,3,4-thiadiazin-3-ium bromide] gave an IC50 (BRAF^V600E [4]) of 83 ± 6 nM, an IC50 [1] of 43 ± 4 nM and an IC50 [2] of 44 ± 4 nM. For the same compound, the IC50 (VEGFR-2 [5]) was 2.8 ± 0.02 nM, the IC50 [3] was 40 ± 4 nM and the “Fold lower antiproliferative potency (GI50) than 9c” value [6] was 1.2 fold. For the same compound, the GI50 [6] was 43 nM, the IC50 (colon cancer (HT-29)) was 44 ± 4 nM and the viability at 96 h, 50 µM (Cell viability assay) was 91%. It also gave an IC50 (EGFR [7]) of 92 ± 7 nM.
Compound `CC/N=C1/NN=C(c2ccc(Br)cc2)CS1` [Compound 9f, (Z)-N-(5-(4-Bromophenyl)-3,6-dihydro-2H-1,3,4-thiadiazin-2-ylidene)ethan aminium bromide] has an IC50 [1] of 65 ± 6 nM, an IC50 [2] of 66 ± 6 nM and an IC50 [3] of 64 ± 6 nM. For the same compound, the GI50 [6] was 66 nM, the IC50 (colon cancer (HT-29)) was 66 ± 6 nM and the viability at 96 h, 50 µM (Cell viability assay) was 89%.
For `Br.c1ccc(C2=NN/C(=N/C3CCCCC3)SC2)cc1` [Compound 9c, (Z)-N-(5-Phenyl-3,6-dihydro-2H-1,3,4-thiadiazin-2-ylidene) cyclohexanaminium bromide], the IC50 (BRAF^V600E [4]) was 74 ± 5 nM, the IC50 [1] was 37 ± 3 nM and the “Western blotting OD, VEGFR-2” value (VEGFR-2 [8]) was 0.346. It also gave an IC50 [2] of 38 ± 3 nM, an IC50 (VEGFR-2 [5]) of 2.2 ± 0.02 nM and an IC50 [3] of 35 ± 3 nM. For the same compound, the “Western blotting OD, BRAF^V600E” value (BRAF^V600E [9]) was 0.219, the GI50 [6] was 38 nM and the IC50 (colon cancer (HT-29)) was 40 ± 4 nM. The “Western blotting OD, EGFR” value (EGFR [10]) was 0.288, the viability at 96 h, 50 µM (Cell viability assay) was 92% and the IC50 (EGFR [7]) was 86 ± 5 nM.
With `C/N=C1/NN=C(c2ccc(Br)cc2)CS1` [Compound 9e, (Z)-N-(5-(4-Bromophenyl)-3,6-dihydro-2H-1,3,4-thiadiazin-2-ylidene) methanaminium bromide] the IC50 [1] was 62 ± 6 nM, the IC50 [2] was 64 ± 6 nM and the IC50 [3] was 58 ± 5 nM. The GI50 [6] was 62 nM, the IC50 (colon cancer (HT-29)) was 64 ± 6 nM and the viability at 96 h, 50 µM (Cell viability assay) was 92%.

Source: PMC11208997 (RSC Advances, 2024)
